Assays:
[1] = test system: mouse primary spiral ganglion neurons; test: Reversal of FAM19A5-induced inhibition of neurite outgrowth; type: cell-based; settings: FAM19A5 protein 10 μM alone, treated 0 DIV, NF200 staining at 3 DIV
Method: Sprial ganglion neuron were cultured in culture media consisting of high-glucose (4.5 mg/mL) DMEM, 0.1 mg/ml penicillin, 0.1 mg/mL streptomycin, N2 supplement, and 10 µg/mL insulin and was designated here as “5K” because in this media, [K+]=5.4 mM. A depolarizing media, designated as “30K,” in which Na was replaced with equimolar K to raise [K] to 30 mM while maintaining osmolarity was also used.
Dissociated spiral ganglion cell cultures were prepared from postnatal day 4-5 (P4-5) cochleae and maintained using a procedure modified from the methods described by Bok et al., J Neurosci 23 (3): 777-87 (2003), which is incorporated herein by reference in its entirety. […]
Neurite outgrowth was quantified by measuring the total length of neurites per neuron. Neurons were stained with NF200 at either 2 or 3 DIV, and neurite lengths were measured using the Fiji (Image J). Individual neurons were manually selected, and neurite lengths were determined using the Simple Neurite Tracer plugin.
Briefly, mouse primary spiral ganglion neurons (cultured and processed as described in Example 11) were treated with a FAM19A5 protein (10 μM) alone or in combination with an anti-FAM19A5 antibody (1-30) (100 nM) at 0 DIV (day in vitro). […] Then, at 3 DIV, the neurons were stained for neurofilament protein (NF200) expression and the average neurite length quantified.

[2] = test system: inner hair cells of mouse cochlear explant; test: Reversal of FAM19A5-induced inhibition of synaptogenesis (CtBP2 puncta); type: cell-based; settings: FAM19A5 protein 1 μM alone, treated 1 DIV, stained 2 DIV
Method: Cochlear explant were cultured in medium consisting of plating media, which consist of Neurobasal media (Invitrogen), 1% N2 supplement, and 10 μg/mL Ampicillin with culture media with additional 1% FBS.
Postnatal day 4-5 (P4-5) C57BL/6 mice were sacrificed for inner ear dissection. Mouse head was bisected, and brain tissue was removed. Cochlea was carefully separated the from the extraneous bones in ice-cold HBSS (5 mM HEPES/1.3 mM CaCl2), 0.9 mM MgCl2, pH 7.4) or External solution (1.2 mM CaCl2), 1 mM MgCl2, 5 mM HEPES in HBSS). Then the stria vascularis and spiral bone plate was removed, and cochlea was cut into two to three sections. […]
Mouse cochlear explant cultures were treated with FAM19A5, FAM19A5 combined with a FAM19A5 antagonist (e.g., described herein, e.g., 1-30 antibody), or a FAM19A5 antagonist (e.g., described herein, e.g., 1-30 antibody) alone at 1 DIV to determine the level of synaptogenesis at 2 DIV by immunostaining CtBP2, a ribbon synapse marker. To quantify the number of CtBP2 puncta of individual inner hair cells, z-stack confocal images were exported in “multi-page” and the number of CtBP2 puncta from each individual inner hair cells were measured using ROI manger and multi-point tool from Fiji (Image J). Number of CtBP2 puncta from five individual inner hair cells were counted per image and 3 z-stack images were measured from each treatment group. […]

FAM19A5 protein: FAM19A5 protein added to neuron and cochlear explant cultures to inhibit neurite outgrowth and synaptogenesis
total neurite length vs non-treated cells [1]: significantly reduced
number of CtBP2 puncta in inner hair cells vs control group [2]: significantly decreased

Source: patent publication US20260265360A1, “USE OF ANTI-FAM19A5 ANTAGONISTS FOR TREATING HEARING DISORDERS” (NEURACLE SCIENCE CO., LTD., priority 2023, published 2026)
